pIC50: −log10 of the molar value. Where two headings read alike, the source gives them in different places.
Assays:
[1] = Compound stability in human liver microsomes; type: in vitro ADME; details: for half-life at 5 μM / CLint scaled at 5 μM: pH 7.4; for CLint scaled at 5 μM: human liver microsomes, in vivo CLint extrapolated
Procedure: (§1) Human or rat liver microsomes incubations were conducted in duplicate in polypropylene tubes. The typical incubation mixtures consisted of human or rat liver microsomes (0.5 mg protein/mL), compounds of interest (5 μM) and NADPH (1.0 mM) in a total volume of 200 μL potassium phosphate buffer (PBS, 100 mM, pH=7.4). Compounds were dissolved in DMSO and diluted with PBS such that the final concentration of DMSO was 0.05%. The enzymatic reactions were commenced with the addition of protein after a 3-min preincubation and incubated in a water bath open to the air at 37° C. Reactions were terminated at various time points (0, 5, 10, 15, 30, 60 min) by adding equal volume of ice-cold acetonitrile. The samples were stored at −80° C. until LC/MS/MS assays.
(§2) The concentrations of compounds in the incubation mixtures of human or rat liver microsomes were determined by a LC/MS/MS method. The ranges of the linearity in the concentration range were determined for each tested compounds.
(§3) A parallel incubation was performed using denatured microsomes as the negative control, and reactions were terminated at various time points (0, 15, 60 min) after incubation at 37° C.
(§4) Dextromethorphan (70 μM) was selected as the positive control, and reactions were terminated at various time points (0, 5, 10, 15, 30, 60 min) after incubation at 37° C. Both positive and negative control samples were included in each assay to ensure the integrity of the microsomal incubation system.
(§5) The concentrations of compounds in human or rat liver microsome incubations were plotted as a percentage of the relevant zero time point control for each reaction. The in vivo CLint were extrapolated (ref.: Naritomi Y, Terashita S, Kimura S, Suzuki A, Kagayama A, Sugiyama Y. “Prediction of human hepatic clearance from in vivo animal experiments and in vitro metabolic studies with liver microsomes from animals and humans”, Drug Metabolism and Disposition, 2001, 29, 1316-1324).

[2] = Compound stability in rat liver microsomes; type: in vitro ADME; details: for T1/2 / half-life at 5 μM: rat liver microsomes 0.5 mg protein/mL, compound 5 μM, NADPH, 37° C.; for half-life at 5 μM / CLint scaled at 5 μM: pH 7.4; for CLint scaled at 5 μM: rat liver microsomes, in vivo CLint extrapolated
Procedure: as §1, §2, §3, §4, §5

[3] = Pharmacokinetic profiles in rats; type: in vivo; details: for F: oral dose generally 5 or 10 mg/kg; for Cl/F / AUC(0-t) / half-life / Vd: iv dosing; for AUC(0-t) / half-life / Vd: rat, plasma; for Vd: read-out: Vss
Procedure: The compounds disclosed herein are assessed in pharmacokinetic studies in mice, rats, dogs or monkeys. The compounds are administered as a water solution, 2% HPMC+1% TWEEN®80 in water solution, 5% DMSO+5% solutol in saline, 4% MC suspension or capsule. For the intravenous administration, the animals are generally given at 1 or 2 mg/kg dose. For the oral (p.o.) dosing, mice and rats are generally given 5 or 10 mg/kg dose, and dogs and monkeys are generally given 10 mg/kg dose. The blood samples (0.3 mL) are drawn at 0.25, 0.5, 1.0, 2.0, 3.0, 4.0, 6.0, 8.0, 12 and 24 h time points or 0.083, 0.25, 0.5, 1.0, 2.0, 4.0, 6.0, 8.0 and 24 h time points and centrifuged at 3,000 or 4000 rpm for 2 to 10 min. The plasma solutions are collected and stored at −20° C. or −70° C. until analyzed by LC/MS/MS as described above.

[4] = target: T1, PI3K p110β/p85α (h) (Homo sapiens, UniProt P42338); assay: PI3K p110β/p85α (h) non-radioactive (HTRF) assay; type: biochemical
T1 construct: purchased Millipore UK Ltd (assays run there as a service)
Procedure: PI3K p110β/p85α (h) [Non-Radioactive Assay]
(§6) PI3K (p110β/p85α) (h) is incubated in assay buffer containing 10 μM phosphatidylinositol-4,5-bisphosphate and MgATP (concentration as required). The reaction is initiated by the addition of the MgATP mix. After incubation for 30 minutes at room temperature, the reaction is stopped by the addition of stop solution containing EDTA and biotinylated phosphatidylinositol-3,4,5-trisphosphate. Finally, detection buffer is added, which contains europium-labelled anti-GST monoclonal antibody, GST-tagged GRP1 PH domain and streptavidin-allophycocyanin. The plate is then read in time-resolved fluorescence mode and the homogenous time-resolved fluorescence (HTRF) signal is determined according to the formula HTRF=10000×(Em665 nm/Em620 nm).
(§7) The kinase assays described herein were performed at Millipore UK Ltd, Dundee Technology Park, Dundee DD2 1SW, UK.

[5] = target: T2, PI3K (p120γ) (h) (Homo sapiens, UniProt P48736); assay: PI3K (p120γ) (h) non-radioactive (HTRF) assay; type: biochemical
T2 construct: purchased Millipore UK Ltd (assays run there as a service)
Procedure: PI3K (p120γ) (h) [Non-Radioactive Assay]
as §6, with “(p120γ)” for “(p110β/p85α)”
as §7

[6] = target: T3, PI3K (p110δ/p85α) (h) (Homo sapiens, UniProt O00329); assay: PI3K (p110δ/p85α) (h) non-radioactive (HTRF) assay; type: biochemical
T3 construct: purchased Millipore UK Ltd (assays run there as a service)
Procedure: PI3K (p110δ/p85α) (h) [Non-Radioactive Assay]
as §6, with “(p110δ/p85α)” for “(p110β/p85α)”
as §7

[7] = target: T4, PI3K p110α/p85α (h) (Homo sapiens, UniProt P42336); assay: PI3K p110α/p85α (h) non-radioactive (HTRF) assay; type: biochemical
T4 construct: purchased Millipore UK Ltd (assays run there as a service)
Procedure: PI3K p110α/p85α (h) [Non-Radioactive Assay]
as §6, with “p110α/p85α” for “(p110β/p85α)”, “phosphatidylinositol 4,5-bisphosphate” for “phosphatidylinositol-4,5-bisphosphate”, “ATP solution.” for “MgATP mix.”, “streptavidin allophycocyanin.” for “streptavidin-allophycocyanin.”
as §7

[8] = target: T5, mTOR (h) (Homo sapiens, UniProt P42345); assay: mTOR (h) kinase assay; type: biochemical
T5 construct: purchased Millipore UK Ltd (assays run there as a service)
Procedure: mTOR (h) is incubated with 50 mM HEPES pH 7.5, 1 mM EDTA, 0.01% TWEEN®20, 2 mg/mL substrate, 3 mM Manganese Chloride and [γ-^33P-ATP] (specific activity approx. 500 cpm/pmol, concentration as required). The reaction is initiated by the addition of the MnATP mix. After incubation for 40 minutes at room temperature, the reaction is stopped by the addition of 3% phosphoric acid solution. Aliquote of the reaction (10 μL) is then spotted onto a P30 filtermat and washed three times for 5 minutes in 75 mM phosphoric acid and once in methanol prior to drying and scintillation counting.
as §7

[9] = human liver microsomes 0.5 mg protein/mL, compound 5 μM, NADPH, 37° C.

T3 sequence (O00329 whole entry): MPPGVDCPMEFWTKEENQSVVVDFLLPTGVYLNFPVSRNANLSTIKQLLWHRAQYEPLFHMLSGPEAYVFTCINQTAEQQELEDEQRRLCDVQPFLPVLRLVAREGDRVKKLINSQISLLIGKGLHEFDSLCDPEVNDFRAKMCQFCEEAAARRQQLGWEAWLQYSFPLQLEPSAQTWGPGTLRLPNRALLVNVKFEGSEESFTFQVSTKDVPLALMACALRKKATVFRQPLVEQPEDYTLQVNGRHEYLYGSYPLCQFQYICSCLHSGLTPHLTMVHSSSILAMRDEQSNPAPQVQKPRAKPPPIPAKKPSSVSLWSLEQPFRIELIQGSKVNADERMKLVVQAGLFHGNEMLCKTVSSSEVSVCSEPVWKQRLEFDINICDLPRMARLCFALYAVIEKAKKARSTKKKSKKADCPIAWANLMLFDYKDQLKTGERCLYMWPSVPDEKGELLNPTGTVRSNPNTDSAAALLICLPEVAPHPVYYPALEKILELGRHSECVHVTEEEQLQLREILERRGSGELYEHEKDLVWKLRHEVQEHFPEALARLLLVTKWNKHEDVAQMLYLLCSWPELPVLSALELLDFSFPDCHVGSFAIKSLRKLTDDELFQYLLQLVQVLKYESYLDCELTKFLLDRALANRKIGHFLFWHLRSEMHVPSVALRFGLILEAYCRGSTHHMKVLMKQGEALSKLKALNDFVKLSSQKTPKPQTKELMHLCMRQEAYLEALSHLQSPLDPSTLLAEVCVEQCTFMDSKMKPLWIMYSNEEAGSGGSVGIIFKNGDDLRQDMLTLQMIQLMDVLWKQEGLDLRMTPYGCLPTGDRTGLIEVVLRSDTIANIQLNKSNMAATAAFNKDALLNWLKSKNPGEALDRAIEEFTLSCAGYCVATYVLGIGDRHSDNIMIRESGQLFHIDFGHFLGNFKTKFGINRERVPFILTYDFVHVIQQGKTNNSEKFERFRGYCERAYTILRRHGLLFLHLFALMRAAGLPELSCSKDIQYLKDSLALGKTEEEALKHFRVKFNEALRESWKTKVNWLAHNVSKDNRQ
T3 sequence (P27986 whole entry partner): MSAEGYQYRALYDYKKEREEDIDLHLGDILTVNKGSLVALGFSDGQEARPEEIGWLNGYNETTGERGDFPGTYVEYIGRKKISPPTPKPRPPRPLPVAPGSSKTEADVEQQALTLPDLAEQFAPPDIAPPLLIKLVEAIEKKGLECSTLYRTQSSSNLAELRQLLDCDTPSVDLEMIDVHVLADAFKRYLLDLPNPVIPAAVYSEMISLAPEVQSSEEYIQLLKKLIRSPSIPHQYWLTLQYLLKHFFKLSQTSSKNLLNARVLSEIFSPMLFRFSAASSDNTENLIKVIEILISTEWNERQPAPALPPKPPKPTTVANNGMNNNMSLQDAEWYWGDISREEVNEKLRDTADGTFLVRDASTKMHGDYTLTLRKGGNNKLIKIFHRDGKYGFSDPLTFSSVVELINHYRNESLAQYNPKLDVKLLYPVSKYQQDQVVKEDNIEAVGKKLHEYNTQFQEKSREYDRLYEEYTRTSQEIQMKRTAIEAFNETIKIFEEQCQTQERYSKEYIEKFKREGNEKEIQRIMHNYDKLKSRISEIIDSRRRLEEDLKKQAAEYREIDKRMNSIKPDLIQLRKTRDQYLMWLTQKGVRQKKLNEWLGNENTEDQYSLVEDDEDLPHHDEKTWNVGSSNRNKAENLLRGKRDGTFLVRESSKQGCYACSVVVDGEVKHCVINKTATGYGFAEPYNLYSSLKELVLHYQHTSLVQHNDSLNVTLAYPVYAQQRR
T1 sequence (P42338 whole entry): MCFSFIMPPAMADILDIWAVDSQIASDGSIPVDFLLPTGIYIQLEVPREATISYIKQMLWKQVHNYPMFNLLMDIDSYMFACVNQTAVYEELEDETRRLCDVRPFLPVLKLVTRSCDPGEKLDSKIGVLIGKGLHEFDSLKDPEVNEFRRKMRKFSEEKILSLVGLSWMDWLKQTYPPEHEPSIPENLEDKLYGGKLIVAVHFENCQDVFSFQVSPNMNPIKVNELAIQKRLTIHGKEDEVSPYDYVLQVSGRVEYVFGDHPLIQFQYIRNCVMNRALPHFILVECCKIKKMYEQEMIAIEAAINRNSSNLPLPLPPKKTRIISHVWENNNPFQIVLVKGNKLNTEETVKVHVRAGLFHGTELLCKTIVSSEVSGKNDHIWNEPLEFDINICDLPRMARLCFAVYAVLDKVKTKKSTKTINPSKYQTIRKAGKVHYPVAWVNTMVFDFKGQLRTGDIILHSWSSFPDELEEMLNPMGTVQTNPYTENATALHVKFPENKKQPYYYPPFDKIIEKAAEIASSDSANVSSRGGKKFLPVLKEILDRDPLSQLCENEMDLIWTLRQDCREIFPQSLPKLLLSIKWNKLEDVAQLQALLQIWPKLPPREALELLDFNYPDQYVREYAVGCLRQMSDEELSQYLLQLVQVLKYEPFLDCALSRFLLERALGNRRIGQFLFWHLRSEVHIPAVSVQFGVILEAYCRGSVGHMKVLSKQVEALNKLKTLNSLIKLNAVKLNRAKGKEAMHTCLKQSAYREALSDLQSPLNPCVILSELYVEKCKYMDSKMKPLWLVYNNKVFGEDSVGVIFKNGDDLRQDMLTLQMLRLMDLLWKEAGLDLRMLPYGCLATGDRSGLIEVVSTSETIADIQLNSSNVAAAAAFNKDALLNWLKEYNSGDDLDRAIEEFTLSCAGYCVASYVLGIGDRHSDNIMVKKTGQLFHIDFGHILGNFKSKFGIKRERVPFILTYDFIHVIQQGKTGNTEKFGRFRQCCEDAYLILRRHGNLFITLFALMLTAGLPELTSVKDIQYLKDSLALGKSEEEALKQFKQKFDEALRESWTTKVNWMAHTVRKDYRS
T1 sequence (P27986 whole entry partner): as the sequence (P27986 whole entry partner) above
T4 sequence (P42336 whole entry): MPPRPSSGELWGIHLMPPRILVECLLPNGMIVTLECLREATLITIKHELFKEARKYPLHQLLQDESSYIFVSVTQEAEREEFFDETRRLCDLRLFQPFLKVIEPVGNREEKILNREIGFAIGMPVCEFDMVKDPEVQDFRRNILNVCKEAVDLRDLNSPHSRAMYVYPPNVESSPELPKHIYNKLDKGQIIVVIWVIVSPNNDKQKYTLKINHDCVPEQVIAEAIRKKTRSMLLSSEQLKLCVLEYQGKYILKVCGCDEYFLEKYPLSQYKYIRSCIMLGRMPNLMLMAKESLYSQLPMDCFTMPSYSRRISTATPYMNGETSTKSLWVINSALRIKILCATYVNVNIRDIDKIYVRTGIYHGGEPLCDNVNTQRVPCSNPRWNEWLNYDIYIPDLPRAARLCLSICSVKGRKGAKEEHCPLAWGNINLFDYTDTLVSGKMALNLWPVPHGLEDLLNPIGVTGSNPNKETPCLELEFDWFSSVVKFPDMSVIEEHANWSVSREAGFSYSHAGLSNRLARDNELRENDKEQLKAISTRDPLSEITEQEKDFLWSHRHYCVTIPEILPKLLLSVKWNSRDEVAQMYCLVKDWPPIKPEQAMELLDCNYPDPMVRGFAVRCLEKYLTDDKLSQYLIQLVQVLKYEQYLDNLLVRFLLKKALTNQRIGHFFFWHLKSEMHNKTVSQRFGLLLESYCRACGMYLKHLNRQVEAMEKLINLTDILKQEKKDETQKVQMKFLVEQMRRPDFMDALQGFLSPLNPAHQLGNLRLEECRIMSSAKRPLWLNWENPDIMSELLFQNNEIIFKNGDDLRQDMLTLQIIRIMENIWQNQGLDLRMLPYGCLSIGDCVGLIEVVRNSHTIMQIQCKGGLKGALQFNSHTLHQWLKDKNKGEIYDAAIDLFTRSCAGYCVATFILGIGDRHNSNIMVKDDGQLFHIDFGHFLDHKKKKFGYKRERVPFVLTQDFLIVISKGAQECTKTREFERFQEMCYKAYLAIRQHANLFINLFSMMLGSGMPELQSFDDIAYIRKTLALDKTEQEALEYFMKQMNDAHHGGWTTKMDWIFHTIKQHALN
T4 sequence (P27986 whole entry partner): as the sequence (P27986 whole entry partner) above
T2 sequence (P48736 whole entry): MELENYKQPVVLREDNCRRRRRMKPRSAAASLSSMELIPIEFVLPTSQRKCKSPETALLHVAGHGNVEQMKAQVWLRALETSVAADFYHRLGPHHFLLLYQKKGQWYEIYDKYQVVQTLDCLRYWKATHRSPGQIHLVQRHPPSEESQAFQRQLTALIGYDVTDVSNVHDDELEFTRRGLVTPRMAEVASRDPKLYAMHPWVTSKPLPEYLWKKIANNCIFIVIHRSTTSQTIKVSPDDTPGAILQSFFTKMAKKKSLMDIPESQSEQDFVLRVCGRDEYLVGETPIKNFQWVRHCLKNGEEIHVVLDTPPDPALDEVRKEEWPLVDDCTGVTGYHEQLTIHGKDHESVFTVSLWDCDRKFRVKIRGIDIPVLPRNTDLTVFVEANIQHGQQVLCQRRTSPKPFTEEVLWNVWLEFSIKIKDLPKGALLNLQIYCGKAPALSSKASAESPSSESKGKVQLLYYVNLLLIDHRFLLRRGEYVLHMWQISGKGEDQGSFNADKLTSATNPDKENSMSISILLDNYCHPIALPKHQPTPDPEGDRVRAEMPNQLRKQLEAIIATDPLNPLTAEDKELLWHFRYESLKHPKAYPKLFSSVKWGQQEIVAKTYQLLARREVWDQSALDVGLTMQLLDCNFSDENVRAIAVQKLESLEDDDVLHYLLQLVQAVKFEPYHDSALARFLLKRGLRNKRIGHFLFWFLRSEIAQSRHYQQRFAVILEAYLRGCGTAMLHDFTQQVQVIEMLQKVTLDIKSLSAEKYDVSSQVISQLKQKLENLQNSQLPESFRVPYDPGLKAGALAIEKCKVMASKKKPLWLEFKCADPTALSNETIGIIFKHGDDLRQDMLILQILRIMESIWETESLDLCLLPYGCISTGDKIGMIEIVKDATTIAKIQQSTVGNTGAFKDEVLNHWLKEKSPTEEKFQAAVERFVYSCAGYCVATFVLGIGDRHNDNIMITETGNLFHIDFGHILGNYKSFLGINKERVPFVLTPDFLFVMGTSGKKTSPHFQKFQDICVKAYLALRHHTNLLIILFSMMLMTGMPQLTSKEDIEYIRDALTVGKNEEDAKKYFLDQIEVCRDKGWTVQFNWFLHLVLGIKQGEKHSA

Structure (SMILES)	half-life at 5 μM [1, 9]	CLint scaled at 5 μM [1]	T1/2 [2]	F ([3]; iv dose 1 mg/kg)	Cl/F ([3]; 1 mg/kg)	AUC(0-t) ([3]; 1 mg/kg)	half-life ([3]; 1 mg/kg)	Vd ([3]; 1 mg/kg)	half-life at 5 μM [2]	CLint scaled at 5 μM [2]	other results
COc1ncc(-c2ccn3ncc(C#N)c3c2)cc1NS(=O)(=O)CC(F)(F)F [Ex. 10, N-(5-(3-cyanopyrazolo[1,5-a]pyridin-5-yl)-2-methoxypyridin-3-yl)-2,2,2-trifluoroethanesulfonamide]	20.4 h	2.03 mL/min/kg	∞	112.95%	12.7 mL/min/kg	1240 ng·h/mL	2.74 h	1.72 L/kg	–	–	–
COc1ncc(-c2ccn3ncc(C#CC(C)O)c3n2)cc1NS(=O)(=O)c1ccc(F)cc1F (centres unmarked) [Ex. 5, 2,4-difluoro-N-(5-(3-(3-hydroxybut-1-yn-1-yl)pyrazolo[1,5-a]pyrimidin-5-yl)-2-methoxypyridin-3-yl)benzenesulfonamide]	5.05 h	5.74 mL/min/kg	–	–	–	–	–	–	3.61 h	11.5 mL/min/kg	pIC50 [4]: 7.12; pIC50 [5]: 8.22; pIC50 [6]: 9.00; pIC50 [7]: 8.52; F ([3]; iv dose 2 mg/kg): 96.20%; Cl/F ([3]; 2 mg/kg): 0.83 mL/min/kg; AUC(0-t) ([3]; 2 mg/kg): 35200 ng·h/mL; half-life ([3]; 2 mg/kg): 3 h; Vd ([3]; 2 mg/kg): 0.2 L/kg; pIC50 [8]: 8.15
COc1ncc(-c2ccn3ncc(C#CC(C)(C)O)c3c2)cc1NS(=O)(=O)c1ccc(F)cc1F [Ex. 8, 2,4-difluoro-N-(5-(3-(3-hydroxy-3-methylbut-1-yn-1-yl)pyrazolo[1,5-a]pyridin-5-yl)-2-methoxypyridin-3-yl)benzenesulfonamide]	130 h	0.22 mL/min/kg	–	103.40%	0.33 mL/min/kg	41800 ng·h/mL	10.8 h	0.28 L/kg	21 h	1.97 mL/min/kg	–

Continued, in another order:

half-life at 5 μM [1, 9]	CLint scaled at 5 μM [1]	T1/2 [2]	F ([3]; iv dose 1 mg/kg)	Cl/F ([3]; 1 mg/kg)	AUC(0-t) ([3]; 1 mg/kg)	half-life ([3]; 1 mg/kg)	Vd ([3]; 1 mg/kg)	half-life at 5 μM [2]	CLint scaled at 5 μM [2]	Structure (SMILES)	other results
55.7 h	0.52 mL/min/kg	–	80.10%	3.17 mL/min/kg	5330 ng·h/mL	3.94 h	0.63 L/kg	1.54 h	26.9 mL/min/kg	CC#Cc1cnn2ccc(-c3cnc(OC)c(NS(=O)(=O)c4ccc(F)cc4F)c3)nc12 [Ex. 7, 2,4-difluoro-N-(2-methoxy-5-(3-(prop-1-yn-1-yl)pyrazolo[1,5-a]pyrimidin-5-yl)pyridin-3-yl)benzenesulfonamide]	–
–	–	∞	50.80%	0.33 mL/min/kg	40900 ng·h/mL	11 h	0.24 L/kg	–	–	COc1ncc(-c2ccn3ncc(C#CC(C)(C)O)c3n2)cc1NS(=O)(=O)c1ccc(F)cc1F [Ex. 6, 2,4-difluoro-N-(5-(3-(3-hydroxy-3-methylbut-1-yn-1-yl)pyrazolo[1,5-a]pyrimidin-5-yl)-2-methoxypyridin-3-yl)benzenesulfonamide]	T1/2 [1, 9]: ∞

— patent publication US9573953B2, “Heteroaromatic compounds as PI3 kinase modulators and methods of use” (CALITOR SCIENCES, LLC, priority 2013, dated 2017)
